Source: patent US20230127008A1, “STAT3-TARGETED BASE EDITOR THERAPEUTICS FOR THE TREATMENT OF MELANOMA AND OTHER CANCERS” (The Broad Institute, Inc., priority 2020, published 2023)

Experiments:
DNA [1] = settings: SpCas9 mutation relative to SEQ ID NO: 74; UniProtKB-Q99ZW2 entry; cited from earlier work
STAT3 [2] = assay: STAT3 reporter signal after STAT3 inhibitor or base editor treatment (FIGS. 3, 4, 5); type: cell-based
STAT3 [3] = assay: STAT3 reporter system (STAT3 signal); type: cell-based
STAT3 SH2 domain = STAT3 SH2 domain (Homo sapiens, UniProt P40763); settings: 37° C.; cited from earlier work
[4] = system: STAT3-dependent breast cancer cells; settings: 10 μM; cited from earlier work
DNA [5] = assay: A to G editing on DNA by ecTadA mutant-nCas9 constructs (mammalian construct); type: cell-based

Sequence of STAT3 SH2 domain (P40763 whole entry, the tested form may be a part): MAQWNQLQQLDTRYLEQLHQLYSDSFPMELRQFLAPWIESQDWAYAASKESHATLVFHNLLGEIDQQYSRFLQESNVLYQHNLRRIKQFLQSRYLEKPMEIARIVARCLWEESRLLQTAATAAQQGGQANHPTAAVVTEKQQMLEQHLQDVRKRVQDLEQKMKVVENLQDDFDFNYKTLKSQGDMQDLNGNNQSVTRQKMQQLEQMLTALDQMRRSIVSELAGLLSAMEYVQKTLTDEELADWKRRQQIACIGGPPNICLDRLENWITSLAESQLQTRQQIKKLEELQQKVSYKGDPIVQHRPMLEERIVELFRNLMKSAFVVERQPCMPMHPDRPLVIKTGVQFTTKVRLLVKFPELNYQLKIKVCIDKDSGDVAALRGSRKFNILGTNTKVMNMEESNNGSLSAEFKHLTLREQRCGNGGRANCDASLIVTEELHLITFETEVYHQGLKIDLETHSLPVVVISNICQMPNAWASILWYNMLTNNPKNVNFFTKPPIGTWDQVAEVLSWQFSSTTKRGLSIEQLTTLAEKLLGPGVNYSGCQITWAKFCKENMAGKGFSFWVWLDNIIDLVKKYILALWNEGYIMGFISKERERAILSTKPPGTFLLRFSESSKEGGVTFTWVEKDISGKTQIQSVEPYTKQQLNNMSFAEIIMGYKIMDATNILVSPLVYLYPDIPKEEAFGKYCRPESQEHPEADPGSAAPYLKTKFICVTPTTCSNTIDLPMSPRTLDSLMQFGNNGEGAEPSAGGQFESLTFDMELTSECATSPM

1099-1368 deletion: SpCas9 mutation relative to canonical SpCas9, SEQ ID NO: 74
Function/Characteristic (as reported) (DNA [1]): No nuclease activity

O=[N+]([O-])c1ccc2c(c1)S(=O)(=O)C=C2 [Stattic, stattic]
STAT3 signal over time (STAT3 [2]): produces an effect that does not last over time | STAT3-driven signals (STAT3 [2]; different concentrations): reduce STAT3-driven signals | inhibition of STAT3 (STAT3 [3]; STAT3 inhibitor at different concentrations, FIG. 3): inhibition of STAT3 | STAT3 signal over time (STAT3 [3]; extension of the graph of FIG. 3, FIG. 5): does not lead to a durable effect | IC50 (STAT3 SH2 domain): 5.1 µM | apoptosis [4]: induce apoptosis

H840A: SpCas9 mutation relative to canonical SpCas9, SEQ ID NO: 74
Function/Characteristic (as reported) (DNA [1]): Nickase mutant which cleaves the non-

ecTadA(D108G)-XTEN-nCas9-NLS: ABE fusion protein, SEQ ID NO: 155
activity on DNA, A to G editing (DNA [5]): ecTadA(D108G)-XTEN-nCas9-NLS: (mammalian construct, active on DNA, A to G

ecTadA(D108N)-XTEN-nCas9-NLS: ABE fusion protein, SEQ ID NO: 154
activity on DNA, A to G editing (DNA [5]): ecTadA(D108N)-XTEN-nCas9-NLS: (mammalian construct, active on DNA, A to G

ecTadA(D108V)-XTEN-nCas9-NLS: ABE fusion protein, SEQ ID NO: 156
activity on DNA, A to G editing (DNA [5]): ecTadA(D108V)-XTEN-nCas9-NLS: (mammalian construct, active on DNA, A to G
